For one compound, binding and KD results are on record in publication PMC11434422 (2024).

Assay [1] deals with ssDNA (ssDNA-compDNA2 hybridized to anchorDNA2) (DNA, single strand) TGTGTAGTGCGGGTTTTTTTTTTGAGATGCAGATCCTGT
The experiment in a line: SPR, multi-cycle injections. The conditions noted are these: 150 mM Li+, 10 mM Ca2+; HBS-EP pH 7.4, 10 mM HEPES, 3 mM EDTA, 0.05% P20, 1% DMSO; hemin 10-100 µM; highest hemin 100 µM; legend: minimal binding. (In SPR one partner is held on a chip, and binding of the other changes the refractive index at the surface.)

Assay [2] deals with c-MYC-G3 (c-MYC-G3-compDNA1 hybridized to anchorDNA1) (DNA, other) TGGGGAGGGTGGGGAATTTTTTTTTCGTGTATTGCTC
The assay is described as follows: SPR, multi-cycle kinetics, 1:1 fit. The conditions noted are these: 150 mM Li+, 10 mM Ca2+; HBS-EP pH 7.4, 10 mM HEPES, 3 mM EDTA, 0.05% P20, 1% DMSO; hemin 10-100 µM.

By KD is commonly meant the free concentration of one partner at which half of the binding sites on the other are occupied at equilibrium, for simple one-to-one binding. Low values mean higher affinity, high ones lower affinity. Take `C=CC1=C(C)C2=Cc3c(C=C)c(C)c4[n]3[Fe]([Cl])[n]3c(c(C)c(CCC(=O)O)c3=CC3=NC(=C4)C(C)=C3CCC(=O)O)=CC1=N2`: the binding result in assay [1] is reported as “no”. Moreover, the KD in assay [2] was determined as 263 ± 3 µM.
